Assay: xn = mol fraction of the nth substance listed
Conditions: 101 kPa, Liquid

Clc1ccccc1 [chlorobenzene] + CCCCCCCO
Conditions	mass density, 298.15 K [kg/m3]	mass density, 303.15 K [kg/m3]	speed of sound, 298.15 K [m/s]	speed of sound, 303.15 K [m/s]	viscosity, 298.15 K [mPa·s]	viscosity, 303.15 K [mPa·s]
x1 = 0.1306	846.348	842.689	1316.7	1300	4.469	3.832
x1 = 0.2566	874.819	870.964	1305.5	1289	3.335	2.896
x1 = 0.3866	906.448	902.362	1293.8	1277.6	2.453	2.164
x1 = 0.4947	934.739	930.425	1284	1268.2	1.911	1.709
x1 = 0.5878	960.727	956.224	1276	1260.7	1.557	1.406
x1 = 0.6827	988.992	984.268	1269.1	1253.8	1.273	1.16
x1 = 0.7682	1016.23	1011.3	1264.6	1248.7	1.073	0.984
x1 = 0.8521	1044.88	1039.69	1262.7	1245.4	0.918	0.85
x1 = 0.9255	1071.67	1066.23	1263.8	1245.5	0.817	0.764
x1 = 1	1100.97	1095.1	1268	1249.4	0.757	0.714
